Patent US10966911B2, “Melanin decomposition inhibitor” (KAO CORPORATION, priority 2016, dated 2021)

Columns and labels:
[1] = system: dopa oxidase activity of melanocytes; assay: Dopa oxidase activity of melanocytes in melanocyte single culture system; type: cell-based, human; details: melanocytes (lightly and darkly); proguanil 0.1-1000 μM; 4 days; versus DMSO; FIGS. 14A, 14B
Experimental: Normal human neonatal foreskin-derived epidermal melanocytes (Human Epidermal Melanocytes, neonatal, lightly pigmented donor (HEMn-LP) and Human Epidermal Melanocytes, neonatal, darkly pigmented donor (HEMn-DP); melanocytes (lightly) and melanocytes (darkly)), a growth medium for epidermal melanocytes (Medium254) and a growth additive (HMGS) for the medium were purchased from Thermo Fisher Scientific. Melanocytes were cultured at 37° C. in 5 vol % CO2 atmospheric conditions.
Melanocytes (lightly and darkly) were seeded in 96-well plates at a cell density of 2×10^4 cells/well (100 μL/well). […] Thereafter, fluorescence intensity of the medium was measured (Ex544 nm/Em590 nm) to evaluate cellular respiratory chain (growth) activity. […] The cells were lysed at 4° C. over 2 hours and dopa oxidase activity was measured. The activity measurement was performed by the following method based on the […] method (Winder A. et al., 1991, Eur. J. Biochem. 198: 317-326): to individual wells containing a cell lysate, the Assay Buffer (80 μL) as mentioned above, an aqueous 20.7 mM MBTH (3-methyl-2-benzothiazolinone hydrazone) solution (60 μL) and an aqueous 5 mM L-DOPA (L-dihydroxyphenylalanine) (40 μL) solution serving as a substrate were added, a reaction was performed at 37° C. for 30 minutes and the absorbance at a wavelength of 505 nm was measured.

[2] = system: Pmel17; assay: Melanin (melanosome) decomposition in epidermal keratinocytes that incorporated MNT-1 melanosome fraction; type: cell-based, human; details: keratinocytes with incorporated melanosome, proguanil 10 or 30 μM, 2 days, FIG. 17
Experimental: Normal human neonatal foreskin-derived epidermal keratinocytes (Human Epidermal Keratinocytes, neonatal (HEKn) lightly; keratinocytes) were purchased from Thermo Fisher Scientific. Melanoma cell strain MNT-1 cells were given by Dr. […] (University La Sapienza, Rome, Italy). The keratinocytes were cultured in a grow medium (Epilife) epidermal keratinocytes (Thermo Fisher Scientific) supplemented with a growth additive (Humedia-KG) (manufactured by Kurabo Industries Ltd.) at 37° C. in 5 vol % CO2 atmospheric conditions. As a grow medium MNT-1 cells, RPMI1640 medium (Thermo Fisher Scientific) containing AIM-V medium and Fetal Bovine Serum (FES) each in an amount of 10% (v/v) was used and culture was performed at 37° C. in 5 vol % CO2 atmospheric conditions. A melanosome fraction was isolated and prepared from MNT-1 cells by a predetermined method (Murase et al. (2013), J Invest Dermatol, 133: 2416-2424). […] The resultant supernatant was subjected to quantitative determination of protein by BCA (bicinchoninic acid) method using Pierce BCA Protein Assay Kit (Thermo Fisher Scientific) and Bovine Serum Albumin (BSA) as a standard substance. […] Expression of β-actin as the internal standard was evaluated by using a monoclonal antibody specific for β-actin (Sigma-Aldrich, 1:5000). […]

[H]/N=C(\N/C(=N/[H])Nc1ccc(Cl)cc1)NC(C)C [proguanil, 1-(p-chlorophenyl)-5-isopropyl biguanide]
dopa oxidase activity [1]: did not accelerate dopa oxidase activity | color density of the cell sediment [2]: confirmed to be increased in a concentration-dependent manner | intensity of the band of Pmel17 ([2]; versus DMSO): is increased in a concentration-dependent manner
